Measured values reported in ChEMBL document CHEMBL5537119 (Eur J Med Chem, 2024).
Activity calls are given as the source filed them. The calls are words filed in the database; no cut-off is given here.

Columns and labels:
THP-1 [1] = test: cells; conditions: Homo sapiens, THP-1, 72 h
Description: Antiproliferative activity against human THP-1 cells assessed as inhibition of cell growth incubated for 72 hrs by MTT assay

Histone deacetylase 2 = Histone deacetylase 2 (Homo sapiens, UniProt Q92769); test: Inhibition of human recombinant HDAC2 using Boc-Lys(Ac)-AMC as substrate preincubated for 5 mins followed by substrate addition and measured after 90 mins by fluorescence based microplate reader analysis
Sequence of Histone deacetylase 2 (Q92769 whole entry): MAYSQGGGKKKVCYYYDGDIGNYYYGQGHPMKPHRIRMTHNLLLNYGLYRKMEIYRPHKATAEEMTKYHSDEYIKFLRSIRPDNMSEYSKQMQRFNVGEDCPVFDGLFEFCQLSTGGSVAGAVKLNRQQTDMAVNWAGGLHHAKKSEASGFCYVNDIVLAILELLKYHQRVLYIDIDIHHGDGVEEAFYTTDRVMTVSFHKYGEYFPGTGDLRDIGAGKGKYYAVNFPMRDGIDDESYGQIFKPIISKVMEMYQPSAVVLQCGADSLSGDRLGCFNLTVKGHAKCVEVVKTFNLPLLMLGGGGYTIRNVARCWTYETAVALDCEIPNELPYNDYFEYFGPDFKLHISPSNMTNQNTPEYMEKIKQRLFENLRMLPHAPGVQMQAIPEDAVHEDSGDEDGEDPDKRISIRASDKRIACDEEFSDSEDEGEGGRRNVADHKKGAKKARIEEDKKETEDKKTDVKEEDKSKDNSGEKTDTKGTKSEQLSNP

[2] = molecular target: T1, Protein deacetylase HDAC6 (Homo sapiens, UniProt Q9UBN7); test: Inhibition of human recombinant HDAC6 using Boc-Lys(Ac)-AMC as substrate preincubated for 5 mins followed by substrate addition and measured after 90 mins by fluorescence based microplate reader analysis
T1 sequence (Q9UBN7 whole entry): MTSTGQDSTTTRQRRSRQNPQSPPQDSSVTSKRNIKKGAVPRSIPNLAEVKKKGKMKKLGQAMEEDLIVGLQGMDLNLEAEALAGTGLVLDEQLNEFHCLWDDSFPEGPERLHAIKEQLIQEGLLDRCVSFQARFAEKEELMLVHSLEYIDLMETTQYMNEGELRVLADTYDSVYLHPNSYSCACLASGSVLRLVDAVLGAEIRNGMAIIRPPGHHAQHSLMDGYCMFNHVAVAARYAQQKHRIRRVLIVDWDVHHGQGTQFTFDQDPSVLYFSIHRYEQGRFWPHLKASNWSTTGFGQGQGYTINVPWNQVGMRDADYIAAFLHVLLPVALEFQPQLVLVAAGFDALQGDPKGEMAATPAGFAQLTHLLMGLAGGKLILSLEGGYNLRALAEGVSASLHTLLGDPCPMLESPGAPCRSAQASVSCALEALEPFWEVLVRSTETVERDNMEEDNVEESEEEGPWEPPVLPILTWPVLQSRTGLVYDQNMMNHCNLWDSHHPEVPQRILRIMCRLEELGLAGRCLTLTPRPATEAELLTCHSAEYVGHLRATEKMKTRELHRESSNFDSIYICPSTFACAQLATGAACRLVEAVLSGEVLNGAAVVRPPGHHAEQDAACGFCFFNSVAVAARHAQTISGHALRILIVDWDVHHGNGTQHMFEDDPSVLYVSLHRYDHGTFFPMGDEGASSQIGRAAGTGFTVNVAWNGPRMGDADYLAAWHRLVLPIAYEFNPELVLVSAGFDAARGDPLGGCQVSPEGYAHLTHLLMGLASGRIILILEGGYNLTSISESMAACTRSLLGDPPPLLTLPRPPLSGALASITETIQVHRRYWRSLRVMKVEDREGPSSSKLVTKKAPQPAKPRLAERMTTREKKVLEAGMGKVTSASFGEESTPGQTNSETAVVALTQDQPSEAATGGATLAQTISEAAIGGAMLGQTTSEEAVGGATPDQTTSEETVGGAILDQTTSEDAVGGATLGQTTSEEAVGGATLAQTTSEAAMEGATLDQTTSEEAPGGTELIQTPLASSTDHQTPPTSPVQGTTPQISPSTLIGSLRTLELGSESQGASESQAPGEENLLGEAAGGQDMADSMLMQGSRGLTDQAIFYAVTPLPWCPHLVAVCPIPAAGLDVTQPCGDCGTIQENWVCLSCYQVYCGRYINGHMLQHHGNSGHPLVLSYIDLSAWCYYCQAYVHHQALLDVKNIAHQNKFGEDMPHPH

[3] = Inhibition of Class IIa/8 HDAC in human THP-1 cells preincubated for 18 hrs followed by substrate addition and measured after 3 hrs by fluorescence based microplate reader assay; format: cell-based
[4] = Inhibition of Class I/IIb HDAC in human THP-1 cells preincubated for 18 hrs followed by substrate addition and measured after 3 hrs by fluorescence based microplate reader assay; format: cell-based
Histone deacetylase 8 = molecular target: T2, Histone deacetylase 8 (Homo sapiens, UniProt Q9BY41); test: Inhibition of human recombinant HDAC8 using Boc-Lys-(Tfa)-AMC as substrate preincubated for 5 mins followed by substrate addition and measured after 90 mins by fluorescence based microplate reader analysis
T2 sequence (Q9BY41 whole entry): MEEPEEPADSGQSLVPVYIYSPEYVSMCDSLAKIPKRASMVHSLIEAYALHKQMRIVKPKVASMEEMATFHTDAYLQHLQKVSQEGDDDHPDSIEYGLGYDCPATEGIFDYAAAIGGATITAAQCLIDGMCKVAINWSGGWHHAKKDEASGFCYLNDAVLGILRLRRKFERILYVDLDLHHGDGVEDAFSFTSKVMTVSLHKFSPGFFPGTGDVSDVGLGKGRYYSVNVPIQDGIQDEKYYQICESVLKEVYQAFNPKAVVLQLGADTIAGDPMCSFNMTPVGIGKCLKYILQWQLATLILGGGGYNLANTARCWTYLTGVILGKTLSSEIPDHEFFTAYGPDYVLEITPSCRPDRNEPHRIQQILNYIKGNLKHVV

THP-1 [5] = test: Antiproliferative activity against human THP-1 cells assessed as reduction in cell viability at 100 uM incubated for 72 hrs by MTT assay relative to control; format: functional
THP-1 [6] = test: Inhibition of Class I/IIb HDAC in human THP-1 cells at 100 uM preincubated for 18 hrs followed by substrate addition and measured after 3 hrs by fluorescence based microplate reader assay relative to control; format: cell-based; conditions: time 21.0 hrs
THP-1 [7] = test: Inhibition of Class IIa/8 HDAC in human THP-1 cells at 100 uM preincubated for 18 hrs followed by substrate addition and measured after 3 hrs by fluorescence based microplate reader assay relative to control; format: cell-based; conditions: time 21.0 hrs, values are per cent of control
Histone deacetylase 4 = Histone deacetylase 4 (Homo sapiens, UniProt P56524); test: Inhibition of human recombinant TEV-8His-tagged HDAC4 (648 to 1057 residues) expressed in Escherichia coli (DE3) Rosetta cells using Boc-Lys-(Tfa)-AMC as substrate preincubated for 5 mins followed by substrate addition and measured after 90 mins by fluorescence based microplate reader analysis
Sequence of Histone deacetylase 4 (P56524 whole entry, the tested form may be a part): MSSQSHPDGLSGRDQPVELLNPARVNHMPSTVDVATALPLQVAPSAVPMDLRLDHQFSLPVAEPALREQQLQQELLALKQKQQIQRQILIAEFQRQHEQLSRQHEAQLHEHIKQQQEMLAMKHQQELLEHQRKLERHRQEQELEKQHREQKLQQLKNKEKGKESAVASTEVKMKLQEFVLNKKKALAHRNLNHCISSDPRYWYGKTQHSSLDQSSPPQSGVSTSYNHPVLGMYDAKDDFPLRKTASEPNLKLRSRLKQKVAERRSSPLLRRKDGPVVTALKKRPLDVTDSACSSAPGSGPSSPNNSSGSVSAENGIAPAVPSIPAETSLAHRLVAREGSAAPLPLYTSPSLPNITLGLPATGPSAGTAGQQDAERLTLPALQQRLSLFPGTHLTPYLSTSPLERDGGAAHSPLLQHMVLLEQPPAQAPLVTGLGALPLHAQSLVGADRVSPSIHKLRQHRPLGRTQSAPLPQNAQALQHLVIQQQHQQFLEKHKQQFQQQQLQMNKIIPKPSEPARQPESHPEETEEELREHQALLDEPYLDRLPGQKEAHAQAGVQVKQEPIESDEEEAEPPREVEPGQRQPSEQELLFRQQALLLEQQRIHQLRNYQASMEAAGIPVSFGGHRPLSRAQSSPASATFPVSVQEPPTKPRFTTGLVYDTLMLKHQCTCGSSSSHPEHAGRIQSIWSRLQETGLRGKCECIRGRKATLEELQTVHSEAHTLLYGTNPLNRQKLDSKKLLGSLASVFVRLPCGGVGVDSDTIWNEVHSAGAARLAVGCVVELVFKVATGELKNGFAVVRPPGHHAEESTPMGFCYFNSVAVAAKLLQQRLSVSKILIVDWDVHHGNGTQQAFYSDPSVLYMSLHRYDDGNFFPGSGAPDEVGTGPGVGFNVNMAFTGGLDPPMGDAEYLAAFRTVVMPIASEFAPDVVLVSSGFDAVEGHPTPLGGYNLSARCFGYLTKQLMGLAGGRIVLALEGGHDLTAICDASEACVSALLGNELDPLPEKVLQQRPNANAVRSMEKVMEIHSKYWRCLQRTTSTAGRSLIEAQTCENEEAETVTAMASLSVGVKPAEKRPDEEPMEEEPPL

Histone deacetylase 3 = Histone deacetylase 3 (Homo sapiens, UniProt O15379); test: Inhibition of HDAC3 (unknown origin)
Sequence of Histone deacetylase 3 (O15379 whole entry): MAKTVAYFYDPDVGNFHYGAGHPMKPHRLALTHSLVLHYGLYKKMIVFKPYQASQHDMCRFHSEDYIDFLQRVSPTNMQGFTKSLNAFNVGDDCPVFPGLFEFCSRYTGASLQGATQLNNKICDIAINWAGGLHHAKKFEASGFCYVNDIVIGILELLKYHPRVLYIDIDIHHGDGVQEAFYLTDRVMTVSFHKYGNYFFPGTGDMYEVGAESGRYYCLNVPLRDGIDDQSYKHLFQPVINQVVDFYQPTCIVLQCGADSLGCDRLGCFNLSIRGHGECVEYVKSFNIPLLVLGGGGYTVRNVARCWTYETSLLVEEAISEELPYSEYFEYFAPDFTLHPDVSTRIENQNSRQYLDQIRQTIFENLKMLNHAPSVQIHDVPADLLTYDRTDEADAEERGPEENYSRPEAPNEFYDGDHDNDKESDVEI

Histone deacetylase 11 = molecular target: T3, Histone deacetylase 11 (Homo sapiens, UniProt Q96DB2); test: Inhibition of HDAC11 (unknown origin)
T3 sequence (Q96DB2 whole entry): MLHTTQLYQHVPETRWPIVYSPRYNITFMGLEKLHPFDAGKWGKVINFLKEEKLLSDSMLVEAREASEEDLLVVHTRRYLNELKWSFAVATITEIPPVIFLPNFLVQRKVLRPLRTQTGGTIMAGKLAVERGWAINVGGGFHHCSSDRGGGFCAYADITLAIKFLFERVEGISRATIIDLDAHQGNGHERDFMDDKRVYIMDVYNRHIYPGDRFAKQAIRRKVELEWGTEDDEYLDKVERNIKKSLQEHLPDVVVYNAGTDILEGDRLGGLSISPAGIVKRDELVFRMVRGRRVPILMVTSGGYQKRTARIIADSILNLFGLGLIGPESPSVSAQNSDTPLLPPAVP

Histone deacetylase 1 = Histone deacetylase 1 (Homo sapiens, UniProt Q13547); test: Inhibition of HDAC1 (unknown origin)
Sequence of Histone deacetylase 1 (Q13547 whole entry): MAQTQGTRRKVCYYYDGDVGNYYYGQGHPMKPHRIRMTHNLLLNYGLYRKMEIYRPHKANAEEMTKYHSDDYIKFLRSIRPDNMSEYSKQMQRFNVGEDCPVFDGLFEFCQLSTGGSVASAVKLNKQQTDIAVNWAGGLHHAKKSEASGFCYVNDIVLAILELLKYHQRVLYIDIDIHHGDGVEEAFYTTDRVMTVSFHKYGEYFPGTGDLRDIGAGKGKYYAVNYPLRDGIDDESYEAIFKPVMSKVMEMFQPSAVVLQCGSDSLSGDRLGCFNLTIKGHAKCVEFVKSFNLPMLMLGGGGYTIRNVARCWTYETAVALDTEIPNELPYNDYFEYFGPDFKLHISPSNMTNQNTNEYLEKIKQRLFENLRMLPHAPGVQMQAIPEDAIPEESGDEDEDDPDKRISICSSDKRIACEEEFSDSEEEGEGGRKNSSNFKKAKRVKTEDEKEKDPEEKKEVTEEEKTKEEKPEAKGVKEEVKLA

Histone deacetylase 5 = Histone deacetylase 5 (Homo sapiens, UniProt Q9UQL6); test: Inhibition of HDAC5 (unknown origin)
Sequence of Histone deacetylase 5 (Q9UQL6 whole entry): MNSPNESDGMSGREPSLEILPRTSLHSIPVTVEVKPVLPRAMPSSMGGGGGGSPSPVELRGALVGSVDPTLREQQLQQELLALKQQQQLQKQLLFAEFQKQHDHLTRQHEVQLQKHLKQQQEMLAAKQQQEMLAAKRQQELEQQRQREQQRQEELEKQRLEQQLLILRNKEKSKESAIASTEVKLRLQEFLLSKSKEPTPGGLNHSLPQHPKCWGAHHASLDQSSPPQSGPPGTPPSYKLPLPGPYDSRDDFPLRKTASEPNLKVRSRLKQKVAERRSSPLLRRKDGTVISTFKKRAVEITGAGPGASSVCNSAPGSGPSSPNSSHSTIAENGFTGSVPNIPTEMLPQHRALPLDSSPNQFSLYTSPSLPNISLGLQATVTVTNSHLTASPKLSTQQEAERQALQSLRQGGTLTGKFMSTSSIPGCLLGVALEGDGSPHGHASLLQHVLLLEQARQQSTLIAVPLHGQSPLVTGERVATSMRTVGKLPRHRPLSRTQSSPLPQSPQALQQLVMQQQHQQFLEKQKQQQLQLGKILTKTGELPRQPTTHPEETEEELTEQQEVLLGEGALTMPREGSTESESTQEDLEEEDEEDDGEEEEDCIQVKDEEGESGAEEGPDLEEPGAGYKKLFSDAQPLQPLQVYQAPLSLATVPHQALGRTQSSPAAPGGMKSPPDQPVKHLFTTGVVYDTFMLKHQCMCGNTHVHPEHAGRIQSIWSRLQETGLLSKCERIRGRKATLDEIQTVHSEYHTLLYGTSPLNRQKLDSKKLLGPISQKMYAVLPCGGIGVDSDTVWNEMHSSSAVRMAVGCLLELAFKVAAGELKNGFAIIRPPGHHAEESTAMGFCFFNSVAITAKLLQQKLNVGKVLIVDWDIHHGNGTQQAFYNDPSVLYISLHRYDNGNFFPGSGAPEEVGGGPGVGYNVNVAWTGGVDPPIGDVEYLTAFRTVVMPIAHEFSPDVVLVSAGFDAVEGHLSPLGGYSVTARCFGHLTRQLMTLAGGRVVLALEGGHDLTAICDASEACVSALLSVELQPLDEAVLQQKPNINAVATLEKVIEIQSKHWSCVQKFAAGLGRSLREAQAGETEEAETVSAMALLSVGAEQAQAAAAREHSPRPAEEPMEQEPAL

THP-1 [8] = test: Induction of apoptosis in human THP-1 cells assessed as subG1 population at 5.7 uM incubated for 48 hrs by Propidium iodide staining based flow cytometric analysis; format: functional, cell-based
CAL-27 [9] = test: Antiproliferative activity against human CAL-27 cells overexpressing HDAC4 assessed as inhibition of cell growth incubated for 72 hrs by MTT assay; format: functional, cell-based; conditions: CAL-27, 72 h
THP-1 [10] = test: Induction of apoptosis in human THP-1 cells assessed as caspase3/7 activation at 5.7 uM incubated for 48 hrs by Hoechst 33342 staining based assay; format: functional, cell-based
THP-1 [11] = test: Synergistic induction of apoptosis in human THP-1 cells assessed as increase in subG1 population at 5.7 uM incubated for 48 hrs in the presence of 7.9 nM bortezomib by Propidium iodide staining based flow cytometric analysis; format: functional, cell-based
THP-1 [12] = test: Synergistic induction of apoptosis in human THP-1 cells assessed as increase in caspase3/7 activation at 5.7 uM incubated for 48 hrs in the presence of 7.9 nM bortezomib by Hoechst 33342 staining based assay; format: functional, cell-based
CAL-27 [13] = test: Antiproliferative activity against human CAL-27 cells without HDAC4 expression assessed as inhibition of cell growth incubated for 72 hrs by MTT assay; format: functional, cell-based; conditions: CAL-27, 72 h
THP-1 [14] = test: Effect on p21 protein expression in human THP-1 cells assessed as increase in p21 protein expression level at 5 uM incubated for 24 hrs by Western blot analysis; format: functional, cell-based
THP-1 [15] = test: Synergistic induction of apoptosis in human THP-1 cells assessed as increase in caspase3/7 activation at 5 uM incubated for 48 hrs in the presence of 7.9 nM bortezomib by Hoechst 33342 staining based assay; format: functional, cell-based
THP-1 [16] = test: Synergistic effect on p21 protein expression in human THP-1 cells assessed as increase in p21 protein expression level at 5 uM incubated for 24 hrs in the presence of 7.9 nM bortezomib by Western blot analysis; format: functional, cell-based
THP-1 [17] = test: Induction of apoptosis in human THP-1 cells assessed as subG1 population at 5 uM incubated for 48 hrs by Propidium iodide staining based flow cytometric analysis; format: functional, cell-based
THP-1 [18] = test: Induction of apoptosis in human THP-1 cells assessed as caspase3/7 activation at 5 uM incubated for 48 hrs by Hoechst 33342 staining based assay; format: functional, cell-based
THP-1 [19] = test: Synergistic induction of apoptosis in human THP-1 cells assessed as increase in subG1 population at 5 uM incubated for 48 hrs in the presence of 7.9 nM bortezomib by Propidium iodide staining based flow cytometric analysis; format: functional, cell-based

IC50 (THP-1 [1]) | IC50 (Histone deacetylase 2) | IC50 [2] | IC50 [3] | IC50 [4] | IC50 (Histone deacetylase 8) | IC50 (Histone deacetylase 4) | Structure (SMILES) | Activity (THP-1 [5]) | inhibition (THP-1 [6]) | residual activity (THP-1 [7]) | other results
> 100 µM | > 100 µM | 19.6 µM | 6.39 µM | > 100 µM | 71.8 µM | 0.75 µM | CN(C(=O)c1ccc(-c2noc(C(F)(F)F)n2)cc1)c1ccccc1 | 33% | 31% | 118% | –
~100 µM | 9.77 µM | 18.1 µM | 0.429 µM | > 100 µM | 7.13 µM | 0.141 µM | O=C(NOCCN1CCOCC1)c1ccc(-c2noc(C(F)(F)F)n2)cc1 | 47% | 41% | 100% | IC50 (Histone deacetylase 3): 2.36 µM; IC50 (Histone deacetylase 11): > 100 µM; IC50 (Histone deacetylase 1): 2.21 µM; IC50 (Histone deacetylase 5): 0.151 µM
47.3 µM | > 100 µM | > 100 µM | > 100 µM | > 100 µM | > 100 µM | 5.54 µM | O=C(Nc1cnc2ccccc2c1)c1ccc(-c2noc(C(F)(F)F)n2)cc1 | 63% | 0% | 18% | –
– | – | – | – | – | – | – | O=C(CCCCCCC(=O)Nc1ccccc1)NO [VORINOSTAT] | 97% | – | – | –
~100 µM | > 100 µM | > 100 µM | 14.5 µM | – | > 100 µM | 0.69 µM | O=C(NCCc1c[nH]c2ccccc12)c1ccc(-c2noc(C(F)(F)F)n2)cc1 | 49% | 64% | 97% | –
> 100 µM | 8.13 µM | 2.03 µM | 0.54 µM | 29.1 µM | > 100 µM | 0.025 µM | CN(Cc1ccccc1)C(=O)c1ccc(-c2noc(C(F)(F)F)n2)cc1 | 34% | 78% | 117% | IC50 (Histone deacetylase 3): 6.86 µM; IC50 (Histone deacetylase 11): > 100 µM; IC50 (Histone deacetylase 1): 14.6 µM; IC50 (Histone deacetylase 5): 0.154 µM
~100 µM | > 100 µM | > 100 µM | 5.51 µM | > 100 µM | > 100 µM | 0.94 µM | CN(C)c1ccc(CNC(=O)c2ccc(-c3noc(C(F)(F)F)n3)cc2)cc1 | 49% | 25% | 103% | –
0.001 µM | – | – | – | – | – | – | Cc1[nH]c2ccccc2c1CCNCc1ccc(/C=C/C(=O)NO)cc1 [PANOBINOSTAT] | 96% | – | – | –
~100 µM | – | – | 0.59 µM | 64.2 µM | – | – | O=C(NOCCN1CCCCC1)c1ccc(-c2noc(C(F)(F)F)n2)cc1 | 45% | 70% | 101% | Activity (THP-1 [8]): inactive; IC50 (Histone deacetylase 3): 15 µM; IC50 (CAL-27 [9]): 69.8 µM; Activity (THP-1 [10]): inactive; IC50 (Histone deacetylase 11): > 100 µM; Activity (THP-1 [11]): Active; IC50 (Histone deacetylase 1): 20.7 µM; Activity (THP-1 [12]): Active; IC50 (CAL-27 [13]): 77.7 µM; IC50 (Histone deacetylase 5): 0.268 µM
– | – | – | – | – | – | – | O=C(NCC1(c2nc(-c3ccccc3)cs2)CCOCC1)c1cccc(-c2noc(C(F)(F)F)n2)c1 | 100% | – | – | Activity (THP-1 [14]): Active; Activity (THP-1 [15]): Active; Activity (THP-1 [16]): Active; Activity (THP-1 [17]): inactive; Activity (THP-1 [18]): inactive; Activity (THP-1 [19]): Active
> 100 µM | 80 µM | 55.4 µM | 5.51 µM | > 100 µM | 16.1 µM | 1.18 µM | CN1CCN(C(=O)c2ccc(-c3noc(C(F)(F)F)n3)cc2)CC1 | 39% | 23% | 103% | –
~100 µM | 25.4 µM | 5.61 µM | 1.17 µM | 13.7 µM | 6.72 µM | 0.139 µM | CCN(CC)CCCCNC(=O)c1ccc(-c2noc(C(F)(F)F)n2)cc1 | 47% | 73% | 102% | –
> 100 µM | 34.8 µM | 16.9 µM | 1.27 µM | 14 µM | 10.8 µM | 0.198 µM | CCN(CC)CCN(C)C(=O)c1ccc(-c2noc(C(F)(F)F)n2)cc1 | 31% | 65% | 98% | –
– | – | – | – | – | – | – | O=C(NO)C(c1ccc(-c2ncc(C(F)(F)F)cn2)cc1)c1ccccc1F (stereo not given) | – | – | – | IC50 (CAL-27 [9]): 12.8 µM; IC50 (CAL-27 [13]): 9.69 µM
